System: human sst2 receptor
Assay: Immunofluorescence microscopy based sst2 internalization assay
Format: cell-based
Conditions: HEK-sst2 cells, 30 min at 37°C, 10 nM

sst2 internalization by positive control: sub-maximal internalization effect
Substance: Tyr^3-octreotide [TOC]
